Experimental data from patent publication US9527856B2, “Oxindole compounds carrying a CO-bound spiro substituent and use thereof for treating vasopressin-related diseases” (AbbVie Deutschland GmbH & Co. KG, priority 2014, dated 2016).
Where two headings read alike, the source gives them in different places.

Legend:
[1] = target: human vasopressin V1a receptor (Homo sapiens, UniProt P37288); test: Vasopressin V1a receptor binding assay; settings: selectivity for human V1b over human V1a, quotient of binding constants
Chain of human vasopressin V1a receptor (P37288 whole entry): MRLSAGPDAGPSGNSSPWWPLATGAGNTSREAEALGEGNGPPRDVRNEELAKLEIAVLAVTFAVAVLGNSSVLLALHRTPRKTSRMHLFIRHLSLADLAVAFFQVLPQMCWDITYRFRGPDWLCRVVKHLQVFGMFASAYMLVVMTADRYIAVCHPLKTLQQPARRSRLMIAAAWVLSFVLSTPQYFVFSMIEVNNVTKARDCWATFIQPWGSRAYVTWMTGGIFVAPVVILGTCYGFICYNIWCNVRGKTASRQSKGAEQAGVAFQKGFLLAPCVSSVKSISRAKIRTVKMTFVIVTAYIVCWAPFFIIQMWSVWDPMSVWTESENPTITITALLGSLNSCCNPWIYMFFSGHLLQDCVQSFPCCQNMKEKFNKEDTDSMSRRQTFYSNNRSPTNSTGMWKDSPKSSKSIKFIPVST

[2] = target: T1, human vasopressin V1b receptor (Homo sapiens, UniProt P47901); settings: read-out: Ki(h-V1b)*, CHO-K1 cell membranes, displacement of 3H-AVP
T1 sequence (P47901 1-424): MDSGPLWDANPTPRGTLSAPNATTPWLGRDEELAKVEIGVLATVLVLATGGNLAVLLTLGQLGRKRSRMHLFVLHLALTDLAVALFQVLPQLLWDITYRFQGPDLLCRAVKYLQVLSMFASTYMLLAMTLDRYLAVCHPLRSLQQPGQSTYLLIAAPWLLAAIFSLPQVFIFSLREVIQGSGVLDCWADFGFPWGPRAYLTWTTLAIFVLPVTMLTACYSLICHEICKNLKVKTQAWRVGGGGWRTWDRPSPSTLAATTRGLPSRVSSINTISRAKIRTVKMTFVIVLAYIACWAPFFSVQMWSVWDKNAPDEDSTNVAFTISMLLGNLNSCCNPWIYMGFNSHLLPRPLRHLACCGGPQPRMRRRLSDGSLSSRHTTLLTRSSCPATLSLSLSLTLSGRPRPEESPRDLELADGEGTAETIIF

[3] = target: T1, human vasopressin V1b receptor; test: biochemical; settings: Ki(h-V1b)* [nM], CHO-K1 cell membranes, displacement of 3H-AVP

Ki(h-V1a)/Ki(h-V1b) [1] | Ki [2] | Ki [3] | Structure (SMILES)
+++ (>75) | 1 to 10 nM | – | CCOc1ncccc1[C@]1(NC(=O)N2CC3(CN(CCN4CCOCC4)C3)C2)C(=O)N(S(=O)(=O)c2ccc(F)cc2OC)c2ccc(C#N)cc21 [Example 3, N-[(3S)-5-Cyano-3-(2-ethoxy-3-pyridyl)-1-(4-fluoro-2-methoxy-phenyl)sulfonyl-2-oxo-indolin-3-yl]-2-(2-morpholinoethyl)-2,6-diazaspiro[3.3]heptane-6-carboxamide]
++ (25-75) | – | 10 to 100 nM | CCOc1ccccc1[C@]1(NC(=O)N2CC3(C2)CN(C2CCN(C4COC4)CC2)C3)C(=O)N(S(=O)(=O)c2ccc(OC)cc2)c2ccc(C#N)cc21.O=C(O)C(F)(F)F [Example 35B, N-[(3S)-5-Cyano-3-(2-ethoxyphenyl)-1-(4-methoxyphenyl)sulfonyl-2-oxo-indolin-3-yl]-2-[1-(oxetan-3-yl)-4-piperidyl]-2,6-diazaspiro[3.3]heptane-6-carboxamide; 2,2,2-trifluoroacetic acid]
++ (25-75) | – | 10 to 100 nM | CCOc1ccccc1[C@]1(NC(=O)N2CC3(C2)CN(C2CCN(C)CC2)C3)C(=O)N(S(=O)(=O)c2ccc(OC)cc2OC)c2ccc(C#N)cc21 [Example 39B, N-[(3S)-5-Cyano-1-(2,4-dimethoxyphenyl)sulfonyl-3-(2-ethoxyphenyl)-2-oxo-indolin-3-yl]-2-(1-methyl-4-piperidyl)-2,6-diazaspiro[3.3]heptane-6-carboxamide]
+++ (>75) | – | 1 to 10 nM | CCOc1ccccc1[C@]1(NC(=O)N2CC3(C2)CN(C2CCN(C(C)C)CC2)C3)C(=O)N(S(=O)(=O)c2ccc(OC)cc2)c2ccc(C#N)cc21 [Example 40, N-[(3S)-5-Cyano-3-(2-ethoxyphenyl)-1-(4-methoxyphenyl)sulfonyl-2-oxo-indolin-3-yl]-2-(1-isopropyl-4-piperidyl)-2,6-diazaspiro[3.3]heptane-6-carboxamide]
+++ (>75) | – | 10 to 100 nM | CCOc1ccccc1[C@]1(NC(=O)N2CC3(C2)CN(C2CCN(C(C)C)CC2)C3)C(=O)N(S(=O)(=O)c2ccc(C)cc2)c2ccc(C#N)cc21 [Example 41, N-[(3S)-5-Cyano-3-(2-ethoxyphenyl)-2-oxo-1-(p-tolylsulfonyl)indolin-3-yl]-2-(1-isopropyl-4-piperidyl)-2,6-diazaspiro[3.3]heptane-6-carboxamide]
+++ (>75) | – | 10 to 100 nM | CCOc1ccccc1[C@]1(NC(=O)N2CC3(C2)CN(C2CCN(C(C)C)CC2)C3)C(=O)N(S(=O)(=O)c2ccc(C#N)cc2)c2ccc(C#N)cc21 [Example 42, N-[(3S)-5-Cyano-1-(4-cyanophenyl)sulfonyl-3-(2-ethoxyphenyl)-2-oxo-indolin-3-yl]-2-(1-isopropyl-4-piperidyl)-2,6-diazaspiro[3.3]heptane-6-carboxamide]
+++ (>75) | – | 10 to 100 nM | CCOc1ccccc1[C@]1(NC(=O)N2CC3(C2)CN(C2CCN(C(C)C)CC2)C3)C(=O)N(S(=O)(=O)c2ccc(F)cc2)c2ccc(C#N)cc21.O=C(O)C(F)(F)F [Example 43B, N-[(3S)-5-Cyano-3-(2-ethoxyphenyl)-1-(4-fluorophenyl)sulfonyl-2-oxo-indolin-3-yl]-2-(1-isopropyl-4-piperidyl)-2,6-diazaspiro[3.3]heptane-6-carboxamide; 2,2,2-trifluoroacetic acid]
+ (10-<25) | – | 10 to 100 nM | CCOc1ncccc1[C@]1(NC(=O)C2CC3(C2)CN(C2CCN(C(C)C)CC2)C3)C(=O)N(S(=O)(=O)c2ccc(OC)cc2)c2ccc(C#N)cc21 [Example 45, N-[(3S)-5-Cyano-3-(2-ethoxy-3-pyridyl)-1-(4-methoxyphenyl)sulfonyl-2-oxo-indolin-3-yl]-6-(1-isopropyl-4-piperidyl)-6-azaspiro[3.3]heptane-2-carboxamide]
+ (10-<25) | – | 1 to 10 nM | CCOc1ncccc1[C@]1(NC(=O)C2CC3(C2)CN(C2CN(C)C2)C3)C(=O)N(S(=O)(=O)c2ccc(OC)cc2)c2ccc(C#N)cc21 [Example 46, N-[(3S)-5-Cyano-3-(2-ethoxy-3-pyridyl)-1-(4-methoxyphenyl)sulfonyl-2-oxo-indolin-3-yl]-6-(1-methylazetidin-3-yl)-6-azaspiro[3.3]heptane-2-carboxamide]
++ (25-75) | – | 10 to 100 nM | CCOc1ncccc1C1(NC(=O)N2CC3(CNC3)C2)C(=O)N(S(=O)(=O)c2ccc(OC)cc2OC)c2ccc(C#N)cc21.O=C(O)C(F)(F)F (stereo not drawn) [Example 58, N-(5-Cyano-1-(2,4-dimethoxyphenylsulfonyl)-3-(2-ethoxypyridin-3-yl)-2-oxoindolin-3-yl)-2,6-diazaspiro[3.3]heptane-2-carboxamide 2,2,2-trifluoroacetate]
+++ (>75) | – | 10 to 100 nM | CCOc1ncccc1C1(NC(=O)N2CC3(C2)CN(C2CCNCC2)C3)C(=O)N(S(=O)(=O)c2ccc(OC)cc2OC)c2ccc(C#N)cc21.O=C(O)C(F)(F)F (stereo not drawn) [Example 59, N-(5-Cyano-1-(2,4-dimethoxyphenylsulfonyl)-3-(2-ethoxypyridin-3-yl)-2-oxoindolin-3-yl)-6-(piperidin-4-yl)-2,6-diazaspiro[3.3]heptane-2-carboxamide 2,2,2-trifluoroacetate]
++ (25-75) | – | 1 to 10 nM | CCOc1ncccc1C1(NC(=O)N2CC3(CCNCC3)C2)C(=O)N(S(=O)(=O)c2ccc(OC)cc2OC)c2ccc(C#N)cc21.O=C(O)C(F)(F)F (stereo not drawn) [Example 60, N-(5-Cyano-1-(2,4-dimethoxyphenylsulfonyl)-3-(2-ethoxypyridin-3-yl)-2-oxoindolin-3-yl)-2,7-diazaspiro[3.5]nonane-2-carboxamide 2,2,2-trifluoroacetate]
